Tests used:
[1] = Stability test of crystal form II; type: physicochemical
Protocol: Test sample: the crystal form II of the compound represented by Formula (I)
Test method: a suitable amount of the test samples was respectively weighed, and the appearance, moisture, content, related substances, XRD, and DSC of the test samples were investigated after being placed under the following conditions. The placing conditions were as follows.
Under the conditions of 60° C.±2° C., or of 25° C. RH92.5%, it was placed for 10 days, opened/closed, and a sample was taken for testing on the 10th day (the opened package is a flat weighing bottle, and the closed package is a low-density polyethylene bag or low-density polyethylene bag+composite film bag.
Under the conditions of 40° C. RH75%, it was placed for one month, opened/closed, and a sample was taken for testing after one month (the opened package is the flat weighing bottle, and the closed package is the low-density polyethylene bag or low-density polyethylene bag+composite film bag).
Moisture: it was determined according to the first 2 coulometric titration of the general rule 0832 (moisture determination) of the Chinese Pharmacopoeia (2015 Edition, Part IV).
XRD: it was determined according to the general rule 0451 (X-ray diffraction) of the Chinese Pharmacopoeia (2015 Edition, Part IV).
DSC: it was determined at a heating rate of 3° C./min, from 100° C. to 200° C.
Related substances and content: it was determined according to the general rule 0512 (HPLC) of the Chinese Pharmacopoeia (2015 Edition, Part IV).

[2] = Hygroscopicity test of crystal form II; type: physicochemical
Protocol: 2. Hygroscopicity Test of Crystal Form II
Test sample: the crystal form II of the compound represented by Formula (I).
Test method: it was determined according to the general rule 9103 (guidelines of drug hygroscopicity test) of the Chinese Pharmacopoeia (2015 Edition, Part IV): the test sample was placed under the condition of 25° C. and RH80% for 24 h (a sample bottle was placed under this condition for 24 h in advance), and results were shown in Table 2: […]

[3] = tested on: xenograft tumor of BaF3 LMNA-NTRK1-G595R stably transfected cell line; assay: Efficacy study on BaF3 LMNA-NTRK1-G595R stable cell strain subcutaneous xenograft model; type: in vivo, mouse (NOD-SCID); conditions: bid, p.o., 7 days
Protocol: Test substance: the compound represented by Formula (I), prepared according to the method in Embodiment 1.
A BaF3LMNA-NTRK1-G595R stably transfected cell line resuspended in a RPM11640 serum-free medium was inoculated subcutaneously on a right scapula of a mouse (nonobese diabetic-severe combined immunodeficiency disease (NOD-SCID)) at 1×10^6 cells/mouse (0.1 ml/mouse).
3.2 Grouping Administration
While the average tumor volume was about 500 mm^3, it was randomly divided into a vehicle group, a compound represented by Formula (I) (10/5/3/1 mg/kg, bid) group and a LOXO-195 group (30/10/3 mg/kg, bid).
3.3 Experimental Evaluation Index
1) Tumor growth inhibition rate TGI (%) • TGI (%)=(1−T/C)×100%
2) Tumor volume ratio of Treatment group/Control group TIC (%) • TIC (%)=TRTV/CRTV×100% • RTV=Vt/V0, herein Vt is the tumor volume on the t-th day after grouping, and V0 is the tumor volume on the day of grouping; TRTV: the average relative tumor volume in the administration group; and CRTV: the average relative tumor volume in the vehicle control group.

[4] = 25° C. RH 92.5% 10 days, Opened
[5] = 25° C. RH 92.5% 10 days, Polyethylene bag
[6] = 25° C. RH 92.5% 10 days, Polyethylene bag + composite film bag
[7] = 40° C. RH 75% 1M, Polyethylene bag
[8] = 40° C. RH 75% 1M, Polyethylene bag + composite film bag
[9] = 60° C. 10 days, Polyethylene bag
[10] = 60° C. 10 days, Polyethylene bag + composite film bag

**Q.** With `C[C@@H]1COc2ncc(F)cc2[C@H]2CCCN2c2ccc3ncn(c3n2)C(=O)N1` [Crystal form II, (2^2R,6R)-3^5-fluoro-6-methyl-1^3H-4-oxa-7-aza-1(5,3)-imidazo[4,5-b]pyridina-3(3,2)-pyridina-2(1,2)-p yrrolidinacyclooctaphan-8-one] as the compound, how does the Appearance ([1]; 0 day) read?
**A.** Its Appearance is “Off-white”.

**Q.** What about the Content ([1]; 0 day) of the same compound?
**A.** Its Content is 100.4%.

**Q.** And the DSC ([1]; 0 day)?
**A.** The DSC was 162.32 °C.

**Q.** And the Moisture ([1]; 0 day)?
**A.** Its Moisture is 0.088%.

**Q.** And the Total related substance ([1]; 0 day)?
**A.** The Total related substance was 0.09%.

**Q.** What about the Appearance [1, 4] of the same compound?
**A.** The Appearance was “Off-white”.

**Q.** What about the Content [1, 4] of the same compound?
**A.** The Content was 99.6%.

**Q.** What about the DSC [1, 4] of the same compound?
**A.** Its DSC is 162.23 °C.

**Q.** What about the Moisture [1, 4] of the same compound?
**A.** The Moisture was 0.13%.

**Q.** And the Total related substance [1, 4]?
**A.** The Total related substance was 0.11%.

**Q.** And the XRD [1, 4]?
**A.** Its XRD is “Same”.

**Q.** What about the Appearance [1, 5] of the same compound?
**A.** Its Appearance is “Off-white”.

**Q.** What about the Content [1, 5] of the same compound?
**A.** Its Content is 99.5%.

**Q.** And the DSC [1, 5]?
**A.** Its DSC is 162.23 °C.

**Q.** What about the Moisture [1, 5] of the same compound?
**A.** The Moisture was 0.11%.

**Q.** And the Total related substance [1, 5]?
**A.** The Total related substance was 0.10%.

**Q.** And the XRD [1, 5]?
**A.** Its XRD is “Same”.

**Q.** And the Appearance [1, 6]?
**A.** The Appearance was “Off-white”.

**Q.** And the Content [1, 6]?
**A.** Its Content is 99.3%.

**Q.** And the DSC [1, 6]?
**A.** The DSC was 162.27 °C.

**Q.** And the Moisture [1, 6]?
**A.** Its Moisture is 0.11%.

**Q.** What about the Total related substance [1, 6] of the same compound?
**A.** Its Total related substance is 0.11%.

**Q.** What about the XRD [1, 6] of the same compound?
**A.** The XRD was “Same”.

**Q.** What about the Appearance ([1]; 40° C. RH 75% 1M, Opened) of the same compound?
**A.** Its Appearance is “Off-white”.

**Q.** And the Content ([1]; 40° C. RH 75% 1M, Opened)?
**A.** Its Content is 100.8%.

**Q.** What about the DSC ([1]; 40° C. RH 75% 1M, Opened) of the same compound?
**A.** Its DSC is 162.29 °C.

**Q.** And the Moisture ([1]; 40° C. RH 75% 1M, Opened)?
**A.** Its Moisture is 0.026%.

**Q.** What about the Total related substance ([1]; 40° C. RH 75% 1M, Opened) of the same compound?
**A.** Its Total related substance is 0.10%.

**Q.** What about the XRD ([1]; 40° C. RH 75% 1M, Opened) of the same compound?
**A.** Its XRD is “Same”.

**Q.** And the Appearance [1, 7]?
**A.** Its Appearance is “Off-white”.

**Q.** What about the Content [1, 7] of the same compound?
**A.** Its Content is 101.0%.

**Q.** What about the DSC [1, 7] of the same compound?
**A.** The DSC was 162.18 °C.

**Q.** And the Moisture [1, 7]?
**A.** Its Moisture is 0.033%.

**Q.** And the Total related substance [1, 7]?
**A.** Its Total related substance is 0.10%.

**Q.** What about the XRD [1, 7] of the same compound?
**A.** Its XRD is “Same”.

**Q.** And the Appearance [1, 8]?
**A.** Its Appearance is “Off-white”.

**Q.** And the Content [1, 8]?
**A.** The Content was 101.0%.

**Q.** What about the DSC [1, 8] of the same compound?
**A.** Its DSC is 162.35 °C.

**Q.** What about the Moisture [1, 8] of the same compound?
**A.** The Moisture was 0.036%.

**Q.** What about the Total related substance [1, 8] of the same compound?
**A.** The Total related substance was 0.10%.

**Q.** And the XRD [1, 8]?
**A.** The XRD was “Same”.

**Q.** And the Appearance ([1]; 60° C. 10 days, Opened)?
**A.** Its Appearance is “Off-white”.

**Q.** And the Content ([1]; 60° C. 10 days, Opened)?
**A.** The Content was 99.8%.

**Q.** And the DSC ([1]; 60° C. 10 days, Opened)?
**A.** The DSC was 162.24 °C.

**Q.** What about the Moisture ([1]; 60° C. 10 days, Opened) of the same compound?
**A.** Its Moisture is 0.18%.

**Q.** And the Total related substance ([1]; 60° C. 10 days, Opened)?
**A.** The Total related substance was 0.11%.

**Q.** What about the XRD ([1]; 60° C. 10 days, Opened) of the same compound?
**A.** Its XRD is “Same”.

**Q.** What about the Appearance [1, 9] of the same compound?
**A.** The Appearance was “Off-white”.

**Q.** And the Content [1, 9]?
**A.** Its Content is 100.0%.

**Q.** What about the DSC [1, 9] of the same compound?
**A.** Its DSC is 162.26 °C.

**Q.** And the Moisture [1, 9]?
**A.** Its Moisture is 0.15%.

**Q.** And the Total related substance [1, 9]?
**A.** Its Total related substance is 0.11%.

**Q.** And the XRD [1, 9]?
**A.** The XRD was “Same”.

**Q.** What about the Appearance [1, 10] of the same compound?
**A.** Its Appearance is “Off-white”.

**Q.** What about the Content [1, 10] of the same compound?
**A.** Its Content is 99.7%.

**Q.** And the DSC [1, 10]?
**A.** Its DSC is 162.23 °C.

**Q.** And the Moisture [1, 10]?
**A.** The Moisture was 0.13%.

**Q.** What about the Total related substance [1, 10] of the same compound?
**A.** The Total related substance was 0.10%.

**Q.** What about the XRD [1, 10] of the same compound?
**A.** Its XRD is “Same”.

**Q.** And the “stability of the crystal form (in words)” value ([1]; 60° C. 10 days, 25° C. RH92.5% 10 days, 40° C. RH75% 1 month, opened/closed package)?
**A.** The value was “the stability of the crystal form is good”.

**Q.** What about the “Moisture absorption weight gain” value ([2]; 25° C. RH80% placing for 1 day) of the same compound?
**A.** Its value is 0.002%.

**Q.** What about the “hygroscopicity (in words)” value ([2]; 25° C. and RH80% for 24 h) of the same compound?
**A.** Its value is “no or almost no hygroscopicity”.

**Q.** Which T/C ([3]; experiment 1, 3 mg/Kg) does the source give for `C[C@@H]1CCc2ncc(F)cc2[C@H]2CCCN2c2ccn3ncc(c3n2)C(=O)N1` [LOXO-195, reference compound] here?
**A.** Its T/C is 93.6%.

**Q.** What about the TGI ([3]; experiment 1, 3 mg/Kg) of the same compound?
**A.** The TGI was 6.4%.

**Q.** And the T/C ([3]; experiment 1, 10 mg/Kg)?
**A.** The T/C was 63.1%.

**Q.** And the TGI ([3]; experiment 1, 10 mg/Kg)?
**A.** Its TGI is 36.9%.

**Q.** What about the T/C ([3]; experiment 2, 30 mg/Kg) of the same compound?
**A.** Its T/C is 0%.

**Q.** What about the TGI ([3]; experiment 2, 30 mg/Kg) of the same compound?
**A.** The TGI was 100%.

Reference: patent publication US20230183265A1, “Crystal Form of Macrocyclic Tyrosine Kinase Inhibitor and Preparation Method therefor” (SHANDONG XUANZHU PHARMA CO., LTD., priority 2020, published 2023)
